# PMC7924852, “The Emericellipsins A–E from an Alkalophilic Fungus Emericellopsis alkalina Show Potent Activity against Multidrug-Resistant Pathogenic Fungi” (Journal of Fungi, 2021)
# Assays:
# [1] = system: B16 (mouse melanoma cell line); experiment: MTT cytotoxicity assay; assay type: cell-based; settings: Mus musculus, 72 h, three experiments, each in triplicate
# Description: (§1) Experiments for determining the cytotoxic activity of the compound in MTT assays were performed as previously described. The following tumor cell lines were used for this study: HCT-116 (colon cancer cell line), B16 (mouse melanoma cell line), K-562 (leukemia cell line), MDA-MB-231 (breast cancer line), and MCF-7 (breast cancer cell). Human postnatal fibroblasts were used as a normal cell line, and doxorubicin was used as a positive control. The cell lines were cultured in Dulbecco modified Eagle’s medium supplemented with 5% fetal calf serum, 2 mM Lglutamine, 100 U/mL penicillin, and […] streptomycin at 37 °C, 5% CO2 in a humidified atmosphere. Experiments were carried out on cells in the logarithmic phase of growth. The peptide was dissolved in DMSO as a 10 mM stock solution, followed by serial dilutions in water immediately before the experiment. Briefly, cells (5 × 10^3 in […] of culture medium) were plated in a 96-well plate and treated with 0.1% DMSO (blank control) or with […] of the peptide (0.10‒50 μM; each concentration in duplicate) for 72 h. After incubation with peptide, […] of aqueous MTT solution (3-(4,5-dimethylthiazol-2-yl)-2,5-diphenyltetrazolium bromide, 5 mg/mL) were added into each well for 2‒3 h. Formazan was dissolved in DMSO, and the absorbance at 570 nm was measured. The cytotoxicity at a given EmiA concentration was calculated as the percentage of absorbance in wells with peptide-treated cells compared to that of blank control cells (100%). The IC50 (50% growth inhibitory concentration) was defined as the concentration of EmiA that inhibited MTT conversion by 50%. All the experiments were repeated three times, each time in triplicate. EmiA was tested at a range of concentrations, 0.1‒10 μM.
# [2] = system: HCT-116 (colon cancer cell line); experiment: MTT cytotoxicity assay; assay type: cell-based; settings: Homo sapiens, 72 h, three experiments, each in triplicate
# Description: as §1
# [3] = system: HPF (human postnatal fibroblasts, normal cell line); experiment: MTT cytotoxicity assay; assay type: cell-based; settings: Homo sapiens, Fibroblast; HPF normal fibroblasts; MTT, 72 h; three experiments, each in triplicate
# Description: as §1
# [4] = system: Candida albicans 1402; experiment: Broth microdilution MIC and MFC (CLSI); assay type: cell-based; settings: Candida albicans 1402 clinical isolate; RPMI 1640 pH 7.0, 35 °C, 24 h; read-out: MIC
# [5] = system: C. glabrata 1402; experiment: Broth microdilution MIC and MFC (CLSI); assay type: cell-based; settings: Nakaseomyces glabratus, 1402, 24 h, pH 7
# [6] = system: C. krusei 1447; experiment: Broth microdilution MIC and MFC (CLSI); assay type: cell-based; settings: C. krusei 1447; symbol R defined in Table S1
# [7] = system: C. tropicalis 156; experiment: Broth microdilution MIC and MFC (CLSI); assay type: cell-based; settings: Candida tropicalis; C. tropicalis 156 clinical isolate; RPMI 1640 pH 7.0, 35 °C, 24 h; read-out: MIC
# [8] = system: C. parapsilosis 571; experiment: Broth microdilution MIC and MFC (CLSI); assay type: cell-based; settings: Lodderomyces parapsilosis, 571, 24 h, pH 7
# [9] = system: Cryptococcus neoformans 297; experiment: Broth microdilution MIC and MFC (CLSI); assay type: cell-based; settings: Cryptococcus neoformans 297 clinical isolate; RPMI 1640 pH 7.0, 35 °C, 24 h; read-out: MIC
# [10] = system: C. laurentii 325m; experiment: Broth microdilution MIC and MFC (CLSI); assay type: cell-based, Cr. laurentii; settings: Papiliotrema laurentii; C. laurentii 325m clinical isolate; RPMI 1640 pH 7.0, 35 °C, 24 h; read-out: MIC
# [11] = system: clinical yeast isolates (Candida, Cryptococcus); experiment: Broth microdilution MIC/MFC, pathogenic multidrug yeast strains; assay type: cell-based; settings: whole panel of Candida isolates
# [12] = system: Aspergillus niger 1133m; experiment: Sensititre YeastOne antifungal susceptibility test; assay type: cell-based; settings: Aspergillus niger, 1133M
# [13] = system: A. fumigatus 390m; experiment: Sensititre YeastOne antifungal susceptibility test; assay type: cell-based; settings: Aspergillus fumigatus, 390M
# [14] = system: A. terreus 497; experiment: Sensititre YeastOne antifungal susceptibility test; assay type: cell-based; settings: Aspergillus terreus, 497
# [15] = system: Candida albicans 1402; experiment: Sensititre YeastOne antifungal susceptibility test; assay type: cell-based; settings: Candida albicans, 1402
# [16] = system: C. glabrata 1402; experiment: Sensititre YeastOne antifungal susceptibility test; assay type: cell-based; settings: Nakaseomyces glabratus, 1402
# [17] = system: C. krusei 1447; experiment: Sensititre YeastOne antifungal susceptibility test; assay type: cell-based; settings: Sensititre YeastOne; C. krusei 1447
# [18] = system: C. tropicalis 156; experiment: Sensititre YeastOne antifungal susceptibility test; assay type: cell-based; settings: Candida tropicalis; Sensititre YeastOne; C. tropicalis 156 clinical isolate; read-out: MIC
# [19] = system: C. parapsilosis 571; experiment: Sensititre YeastOne antifungal susceptibility test; assay type: cell-based; settings: Lodderomyces parapsilosis, 571
# [20] = system: Cryptococcus neoformans 297; experiment: Sensititre YeastOne antifungal susceptibility test; assay type: cell-based; settings: Sensititre YeastOne; Cryptococcus neoformans 297 clinical isolate; read-out: MIC
# [21] = system: Cr. laurentii 325m; experiment: Sensititre YeastOne antifungal susceptibility test; assay type: cell-based; settings: Papiliotrema laurentii; Sensititre YeastOne; Cr. laurentii 325m clinical isolate; read-out: MIC
smiles,measurement,setting,value
COc1cccc2c1C(=O)c1c(O)c3c(c(O)c1C2=O)C[C@@](O)(C(=O)CO)C[C@@H]3O[C@H]1C[C@H](N)[C@H](O)[C@H](C)O1 [Doxorubicin],IC50,[1],0.6 ± 0.07 µM
same,IC50,[2],0.2 ± 0.03 µM
same,IC50,[3],0.2 ± 0.03 µM
"OC(Cn1cncn1)(Cn1cncn1)c1ccc(F)cc1F [FZ, Fluconazole]",MIC,[4],64 µg/mL
same,MIC,[5],128 µg/mL
same,MIC (class symbol),[6],R
same,MIC,[7],64 µg/mL
same,MIC,[8],128 µg/mL
same,MIC,[9],16 µg/mL
same,MIC,[10],32 µg/mL
same,antifungal activity (in words),[11],little or no activity
same,MIC,[12],> 256 µg/mL
same,MIC,[13],> 256 µg/mL
same,MIC,[14],> 256 µg/mL
same,MIC,[15],256 µg/mL
same,MIC,[16],> 256 µg/mL
same,MIC (class symbol),[17],R
same,MIC,[18],64 µg/mL
same,MIC,[19],128 µg/mL
same,MIC,[20],16 µg/mL
same,MIC,[21],32 µg/mL
